Where two headings read alike, the source gives them in different places.
Tests used:
PvNMT = target: T1, PvNMT (Plasmodium vivax, UniProt A5K1A2); assay: biochemical; assay type: biochemical
T1 construct: Gly-Pro stays on the protein after cleavage) (N, cleaved yes); host or cells: E. coli Rosetta 2 (DE3) pRARE
From the text: NMT activity was indirectly measured through the detection of free CoA by the thiol-reactive probe 7-diethylamino-3-(4′-maleimidylphenyl)-4-methylcoumarin (CPM).
This study aimed to identify NMT is with high selectivity for the P. vivax enzyme compared with human NMTs and high potency against the different stages of the P. vivax parasite. For this purpose, a structure-guided approach was applied using previously reported NMT inhibitors as scaffolds to develop a new generation of PvNMT-targeting compounds. The NMT activity of these inhibitors was first measured using biochemical assays through the detection of free CoA by the thiol-reactive probe 7-diethylamino-3-(4′-maleimidylphenyl)-4-methylcoumarin (CPM). Their antiparasitic activity were further evaluated by measuring blood-stage parasite load and inhibition of P. vivax liver-stage schizont and hypnozoite infection. […] Cytotoxicity was assessed in the human hepatoma HepG2 cell line. Synchronized P. falciparum NF54 ring-stage parasites were used for measuring blood-stage parasite load. […] In vitro experiments were repeated at least twice. A single concentration of each inhibitor was initially used to evaluate the inhibition of P. vivax liver stage schizont and hypnozoite infection, followed by the determination of the dose-response relationship.
To measure the activity of the purified PvNMT an assay was adapted from the literature. […] Working stock solutions were made fresh adding DMSO for final concentrations of either 1% or 5% DMSO. […] The plate was incubated for 30 min at room temperature. The enzymatic reaction was initiated by adding 50 μL of reaction substrate containing 10 µM myrCoA and PfARF, as well as 8 μM CPM. Fluorescent readings were taken on a Spectra M2 plate reader (Molecular Devices) with excitation at 385 nm and emission at 485 nm. Fluorescent intensity was measured continuously in one-minute intervals for 45 minutes. Background fluorescence and noise were determined by replacing each constituent of the reaction individually with assay buffer containing 1% DMSO and values were deducted from experimental samples. The enzymatic reactions were set up with varying pHs (6.0-8.5) of the assay buffer to determine optimal reaction conditions with minimal background and off target reactions. In lieu of compound, 10 μL of 10% DMSO/H2O was added to each well. Fluorescence signal was obtained continuously for 45 min. […] IC50 calculations were calculated using Prism (GraphPad Software, Inc).

HsNMT1 = target: T2, HsNMT1 (Homo sapiens, UniProt P30419); assay: NMT activity assay (CPM detection of free CoA), human NMT; assay type: biochemical; conditions: read-out: HsNMT IC50 (nM)*
T2 construct: made in house
T2 sequence (P30419 1-496): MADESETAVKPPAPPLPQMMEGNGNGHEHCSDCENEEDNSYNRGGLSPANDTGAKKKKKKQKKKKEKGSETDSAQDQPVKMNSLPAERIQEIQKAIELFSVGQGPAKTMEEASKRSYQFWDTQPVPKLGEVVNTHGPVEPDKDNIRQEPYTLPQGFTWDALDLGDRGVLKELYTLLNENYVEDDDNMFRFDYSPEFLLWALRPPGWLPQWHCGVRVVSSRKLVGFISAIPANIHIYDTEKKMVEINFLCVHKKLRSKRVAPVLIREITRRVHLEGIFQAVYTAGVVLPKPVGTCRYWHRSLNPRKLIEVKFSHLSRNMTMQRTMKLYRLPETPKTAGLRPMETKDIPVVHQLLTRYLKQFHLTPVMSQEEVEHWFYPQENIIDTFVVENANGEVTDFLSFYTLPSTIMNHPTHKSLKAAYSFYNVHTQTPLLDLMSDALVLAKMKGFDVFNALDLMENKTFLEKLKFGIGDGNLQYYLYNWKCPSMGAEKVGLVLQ

[1] = Table 1, mean values of two or more determinations
[2] = Table 1, enzyme selectivity calculated as HsNMT IC50/PvNMT IC50

T1 sequence (A5K1A2 entry or part of it): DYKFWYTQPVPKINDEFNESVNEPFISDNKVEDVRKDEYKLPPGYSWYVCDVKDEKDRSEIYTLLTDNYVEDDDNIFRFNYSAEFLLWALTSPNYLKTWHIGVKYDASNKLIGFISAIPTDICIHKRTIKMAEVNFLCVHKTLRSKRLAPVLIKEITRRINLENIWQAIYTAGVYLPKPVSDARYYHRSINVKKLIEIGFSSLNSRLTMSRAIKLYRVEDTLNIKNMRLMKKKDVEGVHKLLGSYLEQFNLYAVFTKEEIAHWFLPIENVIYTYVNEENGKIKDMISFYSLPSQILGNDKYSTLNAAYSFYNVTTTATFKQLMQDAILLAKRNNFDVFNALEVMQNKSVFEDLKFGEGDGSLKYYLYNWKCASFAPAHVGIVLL

## c1cncc(CCOc2ccccc2-c2cc(N3CCNCC3)ncn2)c1 [Compound 16c, 4-(piperazin-1-yl)-6-(2-(2-(pyridine-3-yl)ethoxy)phenyl)pyrimidine]
PvNMT; [1]
  IC50: > 40000 nM

## Cc1n[nH]c(C)c1CCOc1cc(F)ccc1-c1cc(N2CCNCC2)ncn1 [Compound 16e, 4-(2-(2-(3,5-dimethyl-1H-pyrazol-4-yl)ethoxy)-4-fluorophenyl)-6-(piperazin-1-yl)pyrimidine]
PvNMT; [1]
  IC50: 5070 nM

## c1cncc(CCOc2ccccc2-c2ccnc(N3CCNCC3)c2)c1 [Compound 12j, 1-(4-(2-(2-(pyridin-3-yl)ethoxy)phenyl)pyridin-2-yl)piperazine]
PvNMT; [2]
  SI**: 220.6
PvNMT; [1]
  IC50: 124 nM
HsNMT1; [1]
  IC50: 27400 nM

## Cc1n[nH]c(C)c1CCOc1ccccc1-c1cccc(OCCN(C)C)c1 [Compound 26h, 2-((2′-(2-(3,5-dimethyl-1H-pyrazol-4-yl)ethoxy)-[1,1′-biphenyl]-3-yl)oxy)-N,N-dimethylethan-1-amine]
PvNMT; Table 2
  IC50: 1560 nM

## c1cncc(CCOc2cccnc2-c2ccnc(N3CCNCC3)c2)c1 [Compound 12h, 2′-(piperazin-1-yl)-3-(2-(pyridin-3-yl)ethoxy)-2,4′-bipyridine]
PvNMT; [2]
  SI**: 90.9
PvNMT; [1]
  IC50: 441 nM
HsNMT1; [1]
  IC50: > 40000 nM

## Cc1n[nH]c(C)c1CCOc1ccc2ccccc2c1-c1ccnc(N2CCNCC2)c1 [Compound 30e, 1-(4-(2-(2-(3,5-dimethyl-1H-pyrazol-4-yl)ethoxy)naphthalen-1-yl)pyridin-2-yl)piperazine]
PvNMT; Table 2
  IC50: 2880 nM

## Cc1n[nH]c(C)c1CCOc1ccc2ccccc2c1-c1cccc(OCCN(C)C)c1 [Compound 30f, 2-(3-(2-(2-(3,5-dimethyl-1H-pyrazol-4-yl)ethoxy)naphthalen-1-yl)phenoxy)-N,N-dimethylethan-1-amine]
PvNMT; Table 2
  IC50: 25400 nM

## Cc1n[nH]c(C)c1CCOc1ccccc1-c1ccnc(N2CCNCC2)c1 [Compound 12n, 1-(4-(2-(2-(3,5-dimethyl-1H-pyrazol-4-yl)ethoxy)phenyl)pyridin-2-yl)piperazine]
PvNMT; [2]
  SI**: 65.7
PvNMT; [1]
  IC50: 604 nM
HsNMT1; [1]
  IC50: 39700 nM

## c1cncc(CCOc2ccccc2-c2cccc(N3CCNCC3)c2)c1 [Compound 12i, 1-(2′-(2-(pyridin-3-yl)ethoxy)-[1,1′-biphenyl]-3-yl)piperazine]
PvNMT; [1]
  IC50: 1540 nM

## Cc1nn(C)c(C)c1CCOc1cc(F)ccc1-c1ccnc(N2CCNCC2)c1 [Compound 12e, 1-(4-(4-fluoro-2-(2-(1,3,5-trimethyl-1H-pyrazol-4-yl)ethoxy)phenyl)pyridin-2-yl)piperazine]
PvNMT; [2]
  SI**: 7.8
PvNMT; [1]
  IC50: 15.8 nM
HsNMT1; [1]
  IC50: 124 nM

## Cc1nn(C)c(C)c1CCOc1ccccc1-c1cccc(OCCN(C)C)c1 [Compound 26b, N,N-dimethyl-2-((2′-(2-(1,3,5-trimethyl-1H-pyrazol-4-yl)ethoxy)-[1,1′-biphenyl]-3-yl)oxy)-ethan-1-amine]
PvNMT; Table 2
  IC50: 83.2 nM
PvNMT; Table 2, HsNMT IC50/PvNMT IC50
  SI**: 118.4
HsNMT1; Table 2
  IC50: 9850 nM

## Cc1n[nH]c(C)c1CCOc1ccccc1-c1cc(N2CCNCC2)ncn1 [Compound 16f, 4-(2-(2-(3,5-dimethyl-1H-pyrazol-4-yl)ethoxy)phenyl)-6-(piperazin-1-yl)pyrimidine]
PvNMT; [1]
  IC50: 14000 nM

## Cc1nn(C)c(C)c1CCOc1ccc2ccccc2c1-c1cccc(OCCN(C)C)c1 [Compound 30b, N,N-dimethyl-2-(3-(2-(2-(1,3,5-trimethyl-1H-pyrazol-4-yl)ethoxy)naphthalen-1-yl)phenoxy)ethan-1-amine]
PvNMT; Table 2
  IC50: 19800 nM

## Fc1ccc(-c2cc(N3CCNCC3)ncn2)c(OCCc2cccnc2)c1 [Compound 16d, 4-(4-fluoro-2-(2-(pyridine-3-yl)ethoxy)phenyl)-6-(piperazin-1-yl)pyrimidine]
PvNMT; [1]
  IC50: 3390 nM

## Fc1ccc(-c2ccnc(N3CCNCC3)c2)c(OCCc2cccnc2)c1 [Compound 12l, 1-(4-(4-fluoro-2-(2-(pyridin-3-yl)ethoxy)phenyl)pyridin-2-yl)piperazine]
PvNMT; [2]
  SI**: 73
PvNMT; [1]
  IC50: 23.4 nM
HsNMT1; [1]
  IC50: 1710 nM

## Cc1nn(C)c(C)c1CCOc1cccnc1-c1cccc(N2CCNCC2)c1 [Compound 12b, 1-(3-(3-(2-(1,3,5-trimethyl-1H-pyrazol-4-yl)ethoxy)pyridin-2-yl)phenyl)piperazine]
PvNMT; [1]
  IC50: 80.2 nM
HsNMT1; [1]
  IC50: 20800 nM

## Cc1n[nH]c(C)c1CCOc1cccnc1-c1ccnc(N2CCNCC2)c1 [Compound 12o]
PvNMT; [1]
  IC50: 3120 nM

## Fc1ccc(-c2cccc(N3CCNCC3)c2)c(OCCc2cccnc2)c1 [Compound 12k, 1-(4′-fluoro-2′-(2-(pyridin-3-yl)ethoxy)-[1,1′-biphenyl]-3-yl)piperazine]
PvNMT; [1]
  IC50: 3120 nM

## Cc1nn(C)c(C)c1CCOc1cc(F)ccc1-c1cc(N2CCNCC2)ncn1 [Compound 16b, 4-(4-fluoro-2-(2-(1,3,5-trimethyl-1H-pyrazol-4-yl)ethoxy)phenyl)-6-(piperazin-1-yl)pyrimidine]
PvNMT; [2]
  SI**: 164.4
PvNMT; [1]
  IC50: 168 nM
PvNMT; ratio of IC50 values for HsNMT1 and PvNMT
  selectivity index (SI): 164
HsNMT1; [1]
  IC50: 27600 nM

## CN(C)CCOc1cccc(-c2ncccc2OCCc2cccnc2)c1 [Compound 26d, N,N-dimethyl-2-(3-(3-(2-(pyridin-3-yl)ethoxy)pyridin-2-yl)phenoxy)ethan-1-amine]
PvNMT; Table 2
  IC50: 14800 nM

## c1cncc(CCOc2cccnc2-c2cccc(N3CCNCC3)c2)c1 [Compound 12g, 1-(3-(3-(2-(pyridin-3-yl)ethoxy)pyridin-2-yl)phenyl)piperazine]
PvNMT; [2]
  SI**: 152.8
PvNMT; [1]
  IC50: 104 nM
HsNMT1; [1]
  IC50: 15900 nM

## Cc1n[nH]c(C)c1CCOc1cccnc1-c1cccc(OCCN(C)C)c1 [Compound 26g, 2-(3-(3-(2-(3,5-dimethyl-1H-pyrazol-4-yl)ethoxy)pyridin-2-yl)phenoxy)-N,N-dimethylethan-1-amine]
PvNMT; Table 2
  IC50: 19400 nM

## Cc1nn(C)c(C)c1CCOc1ccccc1-c1cc(N2CCNCC2)ncn1 [Compound 16a, 4-(piperazin-1-yl)-6-(2-(2-(1,3,5-trimethyl-1H-pyrazol-4-yl)ethoxy)phenyl)pyrimidine]
PvNMT; [1]
  IC50: 9390 nM

## Cc1n[nH]c(C)c1CCOc1cc(F)ccc1-c1cccc(OCCN(C)C)c1 [Compound 26i, 2-((2′-(2-(3,5-dimethyl-1H-pyrazol-4-yl)ethoxy)-4′-fluoro-[1,1′-biphenyl]-3-yl)oxy)-N,N-dimethylethan-1-amine]
PvNMT; Table 2
  IC50: 242 nM
PvNMT; Table 2, HsNMT IC50/PvNMT IC50
  SI**: 57
HsNMT1; Table 2
  IC50: 13900 nM

## Cc1nn(C)c(C)c1CCOc1cccnc1-c1cccc(OCCN(C)C)c1 [Compound 26a, N,N-dimethyl-2-(3-(3-(2-(1,3,5-trimethyl-1H-pyrazol-4-yl)ethoxy)pyridin-2-yl)phenoxy)-ethan-1-amine]
PvNMT; Table 2
  IC50: 266 nM
PvNMT; Table 2, HsNMT IC50/PvNMT IC50
  SI**: 153.8
HsNMT1; Table 2
  IC50: > 40000 nM

## CN(C)CCOc1cccc(-c2ccc(F)cc2OCCc2cccnc2)c1 [Compound 26f, 2-((4′-fluoro-2′-(2-(pyridin-3-yl)ethoxy)-[1,1′-biphenyl]-3-yl)oxy)-N,N-dimethylethan-1-amine]
PvNMT; Table 2
  IC50: 622 nM
PvNMT; Table 2, HsNMT IC50/PvNMT IC50
  SI**: 62.3
HsNMT1; Table 2
  IC50: > 40000 nM

## Cc1n[nH]c(C)c1CCOc1cccnc1-c1cccc(N2CCNCC2)c1 [Compound 12m, 1-(3-(3-(2-(3,5-dimethyl-1H-pyrazol-4-yl)ethoxy)pyridin-2-yl)phenyl)piperazine]
PvNMT; [1]
  IC50: 12500 nM

## CN(C)CCOc1cccc(-c2c(OCCc3cccnc3)ccc3ccccc23)c1 [Compound 30d, N,N-dimethyl-2-(3-(2-(2-(pyridin-3-yl)ethoxy)naphthalen-1-yl)phenoxy)ethan-1-amine]
PvNMT; Table 2
  IC50: 7210 nM

## CN(C)CCOc1cccc(-c2ccccc2OCCc2cccnc2)c1 [Compound 26e, N,N-dimethyl-2-((2′-(2-(pyridin-3-yl)ethoxy)-[1,1′-biphenyl]-3-yl)oxy)ethan-1-amine]
PvNMT; Table 2
  IC50: 12800 nM

— patent US20260217686A1, “N-Myristoyltransferase Inhibitors And Methods Of Use” (Seattle Children's Hospital (d/b/a Seattle Children's …, priority 2022, published 2026)
